What follows are compounds tested on formation of peroxide lipids (rat brain homogenate) (assay: activity of inhibiting formation of peroxide lipids (TBA assay, rat brain homogenate supernatant)). Details: final concentration 10^-4 M, pH 7.4, 37° C., 30 minutes, malondialdehyde by TBA assay vs control, 100 µM.
Type: biochemical, rat (Wistar)
Protocol: With respect to the compounds of the present invention, the activity of inhibiting formation of peroxide lipids was tested according to the following procedures.
Male rats of the Wistar system having a body weight of 200 to 250 g were used. The rat brain was extracted by beheading and homogenized by 50 mM phosphate buffer solution (pH 7.4)(PBS), and centrifugal separation was conducted for 15 minutes under 1000 G. The supernatant was frozen at -30° C. and stored, and when the test was carried out, the frozen supernatant was thawed in running water and diluted with PBS so that the volume was trebled, whereby a living body sample was prepared.
Two samples were formed by adding 10 μl of a solution of the test compound (the final concentration was 10^-4 M) to 990 μl of the living body sample. One sample was incubated at 37° C. for 30 minutes and 0.2 ml of a 35% solution of perchloric acid was added to stop the reaction. The other sample was not incubated but the solution of perchloric acid was immediately added to stop the reaction. Both the reaction liquids were subjected to centrifugal separation at 3000 rpm for 15 minutes. With respect to each sample, by using 0.5 ml of the supernatant, the amount of the peroxide lipid was determined according to the TBA assay [Okawa et al., Anal. Biochem., 95. 351 (1979)], and the difference between both the measured values was determined as the amount of malondialdehyde (MDS)(the unit: nmole/mg protein). The peroxide lipid inhibition ratio was calculated from this MDA amount (A) and the control value (B) (the MDA amount obtained when the test compound was not added) according to the following formula: [formula]

Structure (SMILES)	Inhibition Ratio (%) (peroxide lipid inhibition ratio)
Cc1nc(CN2CCCc3ccccc32)cs1 [Compound 3]	88.7%
Clc1ccc2c(c1)CCCN2Cc1ccco1 [Compound 21]	87.2%
c1coc(CN2CCSc3ccccc32)c1 [Compound 19, 4-(2-furyl)methyl-3,4-dihydro-2H-1,4-benzothiazine]	80.9%
Cc1nc(CN2CCc3ccccc32)cs1 [Compound 4]	84.6%
c1coc(CCCN2CCCc3ccccc32)c1 [Compound 13]	90.5%
Cc1ncoc1CN1CCCc2ccccc21 [Compound 12]	97.8%
CCOC(=O)c1cncnc1CN1CCCc2ccccc21 [Compound 17]	100.0%
Cc1ccc2c(c1)CCCN2Cc1ccco1 [Compound 20]	85.1%
CCOC(=O)c1cnc(C)nc1CN1CCCc2ccccc21 [Compound 15]	100.0%
CN(C)C(=O)n1cnc(CN2c3ccccc3CCc3ccccc32)c1 [Compound 9, 1-(N,N-dimethylcarbamoyl)-4-(10,11-dihydro-5H-dibenzo[b,f]azepin-5-ylmethyl)imidazole]	94.0%
CCOC(=O)c1cnc(-c2ccccc2)nc1CN1CCCc2ccccc21 [Compound 16]	100.0%
c1csc(CN2CCc3ccccc32)c1 [Compound 6]	95.4%
c1coc(CN2CCOc3ccccc32)c1 [Compound 11, 4-(2-furyl)methyl-3,4-dihydro-2H-benzooxazine]	56.0%
c1coc(CN2CCc3ccccc32)c1 [Compound 10]	87.0%
O=C1C=C(OCCN2CCCc3ccccc32)C(=O)c2ccccc21 [Compound 18]	97.9%
c1csc(CN2CCCc3ccccc32)c1 [Compound 5]	93.6%
c1ccc(CN2CCCc3ccccc32)nc1 [Compound 14]	100.0%
Cn1cncc1CN1CCCc2ccccc21 [Compound 1]	99.0%

— patent US4962200A, “Nitrogen-containing compound” (Mitsui Petrochemical Industries, Ltd., priority 1987, dated 1990)
